Measurements: patent publication US6620828B2, “Thiazole compounds and pharmaceutical compositions for inhibiting protein kinases and methods for their use” (Agouron Pharmaceuticals, Inc., priority 1999, dated 2003)
Like-named read-outs stand apart in the source and are kept apart here.

Test system: human umbilical vein endothelial cells (HUVEC)
Experiment: HUVEC proliferation assay
Assay type: cell-based
Conditions: Homo sapiens, HUVEC; for inhibition at 0.001 µM: 1 nM; for inhibition at 0.01 µM: 10 nM; for inhibition at 0.05 µM: 50 nM; for inhibition at 0.15 µM: Table I screening results, 150 nM
Protocol: HUVEC Proliferation Assay
This assay determines the ability of a test compound to inhibit the growth factor-stimulated proliferation of human umbilical vein endothelial cells (“HUVEC”). HUVEC cells (passage 3-4, Clonetics, Corp.) were thawed into EGM2 culture medium (Clonetics Corp) in T75 flasks. Fresh EGM2 medium was added to the flasks 24 hours later. Four or five days later, cells were exposed to another culture medium (F12K medium supplemented with 10% fetal bovine serum (FBS), 60 μg/ml endothelial cell growth supplement (ECGS), and 0.1 mg/ml heparin). Exponentially-growing HUVEC cells were used in experiments thereafter. Ten to twelve thousand HUVEC cells were plated in 96-well dishes in 100 μl of rich, culture medium (described above). The cells were allowed to attach for 24 hours in this medium. The medium was then removed by aspiration and 105 μl of starvation media (F12K+1% FBS) was added to each well. After 24 hours, 15 μl of test agent dissolved in 1% DMSO in starvation medium or this vehicle alone was added into each treatment well; the final DMSO concentration was 0.1%. One hour later, 30 μl of VEGF (30 ng/ml) in starvation media was added to all wells except those containing untreated controls; the final VEGF concentration was 6 ng/ml. Cellular proliferation was quantified 72 hours later by MTT dye reduction, at which time cells were exposed for 4 hours MTT (Promega Corp.). Dye reduction was stopped by addition of a stop solution (Promega Corp.) and absorbance at 595 λ was determined on a 96-well spectrophotometer plate reader.
IC50 values were calculated by curve-fitting the response of A^595 to various concentrations of the test agent; typically, seven concentrations separated by 0.5 log were employed, with triplicate wells at each concentration. For screening compound library plates, one or two concentrations (one well per concentration) were employed, and the % inhibition was calculated by the following formula:
% inhibition=(control−test) divided by (control−starvation) […]
control=A^595 when VEGF is present without test agent test=A^595 when VEGF is present with test agent starvation=A^595 when VEGF and test agent are both absent.

[1] = Table II screening results, crude combinatorial amide library
[2] = Table II screening results, crude combinatorial amide library, read-out: % inhibition @ 10 nM
[3] = Inhibition of HUVEC Proliferation, crude combinatorial urea library, read-out: % inhibition @ 50 nM
[4] = crude combinatorial urea library, read-out: Inhibition of HUVEC Proliferation % inhibition @ 10 nM
[5] = crude combinatorial urea library, read-out: Inhibition of HUVEC Proliferation % inhibition @ 50 nM
[6] = table following Table II (untitled), crude combinatorial library
[7] = table following Table II (untitled), crude combinatorial library, read-out: % inhibition @ 10 nM
[8] = Inhibition of HUVEC Proliferation, crude combinatorial urea library, read-out: Inhibition @ 50 nM
[9] = crude combinatorial amide library

CCO/C(C)=C/C(=O)Nc1cccc(-c2csc(-c3sc(NC(=O)NC)nc3N)n2)c1
inhibition at 0.001 µM [1]: 7%
inhibition at 0.01 µM [2]: 47%

CNC(=O)CNC(=O)Nc1nc(N)c(-c2nc(-c3cc(NC(=O)c4cccc(OC)c4)c(F)cc3F)cs2)s1
inhibition at 0.05 µM [3]: 73%

COc1cccc(C(=O)Nc2cccc(-c3csc(-c4sc(NC(=O)NCS(=O)(=O)O)nc4N)n3)c2)c1
inhibition at 0.01 µM [4]: -8%
inhibition at 0.05 µM [5]: 8%

COc1cccc(C(=O)Nc2cc(-c3csc(-c4sc(NC(=O)NCCCN(CCO)CCO)nc4N)n3)c(F)cc2F)c1
inhibition at 0.05 µM [3]: 51%

COc1cc(Nc2nc(N)c(-c3nc(-c4cc(NC(=O)C(C)C)ccc4C)no3)s2)cc(OC)c1OC
inhibition at 0.001 µM [6]: 6%
inhibition at 0.01 µM [7]: 1%

COc1cccc(C(=O)Nc2cc(-c3csc(-c4sc(NC(=O)NCP(=O)(O)O)nc4N)n3)c(F)cc2F)c1
inhibition at 0.05 µM [3]: 48%

COc1cccc(C(=O)Nc2cc(-c3noc(-c4sc(NC(=O)NCCCC(=O)O)nc4N)n3)c(F)cc2F)c1
inhibition at 0.05 µM [8]: 96%

COc1cc(Nc2nc(N)c(-c3nc(-c4cc(NC(=O)C5CCC(=O)CC5)ccc4C)no3)s2)cc(OC)c1OC
inhibition at 0.001 µM [6]: 23%
inhibition at 0.01 µM [7]: -24%

CCN1CCCC1CNC(=O)Nc1nc(N)c(-c2nc(-c3cccc(NC(=O)c4cccc(OC)c4)c3)cs2)s1 (centres unmarked)
inhibition at 0.01 µM [4]: -29%
inhibition at 0.05 µM [5]: 108%

COc1cc(Nc2nc(N)c(-c3nc(-c4cccc(NC(=O)CSc5ccncc5)c4)cs3)s2)cc(OC)c1OC
inhibition at 0.15 µM [9]: -34%

CNC(=O)Nc1nc(N)c(-c2nc(-c3cccc(NC(=O)C4C[C@H]5C=C[C@@H]4C5)c3)cs2)s1 (some centres unmarked)
inhibition at 0.001 µM [1]: 4%
inhibition at 0.01 µM [2]: -18%

CCN1CCCC1CNC(=O)Nc1nc(N)c(-c2nc(-c3cc(NC(=O)c4cccc(OC)c4)c(F)cc3F)no2)s1 (centres unmarked)
inhibition at 0.05 µM [8]: 12%

CCCCN(CC)CCNC(=O)Nc1nc(N)c(-c2nc(-c3cc(NC(=O)c4cccc(OC)c4)c(F)cc3F)cs2)s1
inhibition at 0.05 µM [3]: 24%

COc1cccc(C(=O)Nc2cc(-c3csc(-c4sc(NC(=O)NCC(C)N(C)C)nc4N)n3)c(F)cc2F)c1 (centres unmarked)
inhibition at 0.05 µM [3]: 22%

COc1cccc(C(=O)Nc2cccc(-c3csc(-c4sc(NC(=O)NCCc5ccccn5)nc4N)n3)c2)c1
inhibition at 0.01 µM [4]: -2%
inhibition at 0.05 µM [5]: 128%

COc1cccc(C(=O)Nc2cccc(-c3csc(-c4sc(NC(=O)NCCCCCCN(C)C)nc4N)n3)c2)c1
inhibition at 0.01 µM [4]: 32%
inhibition at 0.05 µM [5]: 24%

COc1cc(Nc2nc(N)c(-c3nc(-c4cc(NC(=O)CC(C)(C)NC(C)=O)ccc4C)no3)s2)cc(OC)c1OC
inhibition at 0.001 µM [6]: 2%
inhibition at 0.01 µM [7]: -11%

COc1cccc(C(=O)Nc2cccc(-c3csc(-c4sc(NC(=O)NCC(C)C)nc4N)n3)c2)c1
inhibition at 0.01 µM [4]: -1%
inhibition at 0.05 µM [5]: -23%

COc1cc(Nc2nc(N)c(-c3nc(-c4cc(NC(=O)CCN5CCCCC5)ccc4C)no3)s2)cc(OC)c1OC
inhibition at 0.001 µM [6]: 3%
inhibition at 0.01 µM [7]: 28%

COc1cccc(C(=O)Nc2cc(-c3csc(-c4sc(NC(=O)NCC#N)nc4N)n3)c(F)cc2F)c1
inhibition at 0.05 µM [3]: 71%

CCCCN(CCCC)CCCNC(=O)Nc1nc(N)c(-c2nc(-c3cc(NC(=O)c4cccc(OC)c4)c(F)cc3F)cs2)s1
inhibition at 0.05 µM [3]: 81%

COc1cc(Nc2nc(N)c(-c3nc(-c4cc(NC(=O)[C@@H](OC)c5ccccc5)ccc4C)no3)s2)cc(OC)c1OC
inhibition at 0.001 µM [6]: -11%
inhibition at 0.01 µM [7]: 63%

COc1cccc(C(=O)Nc2cccc(-c3csc(-c4sc(NC(=O)NCc5ccncc5)nc4N)n3)c2)c1
inhibition at 0.01 µM [4]: -2%
inhibition at 0.05 µM [5]: 116%

CNC(=O)Nc1nc(N)c(-c2nc(-c3cccc(NC(=O)C4CC(=O)N(C)C4)c3)cs2)s1 (centres unmarked)
inhibition at 0.001 µM [1]: 21%
inhibition at 0.01 µM [2]: -4%

COc1cc(Nc2nc(N)c(-c3nc(-c4cccc(NC(=O)C5C(C=C(C)C)C5(C)C)c4)cs3)s2)cc(OC)c1OC (centres unmarked)
inhibition at 0.15 µM [9]: 19%

COCCNC(=O)Nc1nc(N)c(-c2nc(-c3cccc(NC(=O)c4cccc(OC)c4)c3)cs2)s1
inhibition at 0.01 µM [4]: 35%
inhibition at 0.05 µM [5]: 32%

COc1cc(Nc2nc(N)c(-c3nc(-c4cccc(NC(=O)C#Cc5ccccc5)c4)cs3)s2)cc(OC)c1OC
inhibition at 0.15 µM [9]: -25%

COc1cc(Nc2nc(N)c(-c3nc(-c4cc(NC(=O)c5ccc(C(C)(C)C)o5)ccc4C)no3)s2)cc(OC)c1OC
inhibition at 0.001 µM [6]: -9%
inhibition at 0.01 µM [7]: 48%

COc1cc(Nc2nc(N)c(-c3nc(-c4cc(NC(=O)[C@H]5CCCN5C(C)=O)ccc4C)no3)s2)cc(OC)c1OC
inhibition at 0.001 µM [6]: -44%
inhibition at 0.01 µM [7]: -3%

COc1cccc(C(=O)Nc2cc(-c3csc(-c4sc(NC(=O)NCCc5cccnc5)nc4N)n3)c(F)cc2F)c1
inhibition at 0.05 µM [3]: 100%

COc1cccc(C(=O)Nc2cc(-c3noc(-c4sc(NC(=O)NCCCn5ccnc5)nc4N)n3)c(F)cc2F)c1
inhibition at 0.05 µM [8]: 87%

COc1cc(Nc2nc(N)c(-c3nc(-c4cc(NC(=O)C5CC[C@H]6C=C[C@@H]5C6)ccc4C)no3)s2)cc(OC)c1OC (some centres unmarked)
inhibition at 0.001 µM [6]: -2%
inhibition at 0.01 µM [7]: 33%

COc1cccc(C(=O)Nc2cc(-c3noc(-c4sc(NC(=O)NCCN5CCNC5=O)nc4N)n3)c(F)cc2F)c1
inhibition at 0.05 µM [8]: -2%

COc1cc(Nc2nc(N)c(-c3nc(-c4cccc(NC(=O)c5cnc(Cl)c(Cl)c5)c4)cs3)s2)cc(OC)c1OC
inhibition at 0.15 µM [9]: 20%

COc1cccc(C(=O)Nc2cc(-c3csc(-c4sc(NC(=O)NCCCN5CCCCCC5)nc4N)n3)c(F)cc2F)c1
inhibition at 0.05 µM [3]: 86%

COc1cccc(C(=O)Nc2cc(-c3noc(-c4sc(NC(=O)NCCN(C(C)C)C(C)C)nc4N)n3)c(F)cc2F)c1
inhibition at 0.05 µM [8]: -6%

COc1cc(Nc2nc(N)c(-c3nc(-c4cc(NC(=O)[C@H](C)C(C)C)ccc4C)no3)s2)cc(OC)c1OC
inhibition at 0.001 µM [6]: -8%
inhibition at 0.01 µM [7]: -18%

CNC(=O)Nc1nc(N)c(-c2nc(-c3cccc(NC(=O)c4cc(C)nn4C)c3)cs2)s1
inhibition at 0.001 µM [1]: 10%
inhibition at 0.01 µM [2]: 39%

COc1cc(Nc2nc(N)c(-c3nc(-c4cccc(NC(=O)C5C=CCC=C5C)c4)cs3)s2)cc(OC)c1OC (centres unmarked)
inhibition at 0.15 µM [9]: 14%

COc1cccc(C(=O)Nc2cc(-c3csc(-c4sc(NC(=O)NCC5CCCO5)nc4N)n3)c(F)cc2F)c1 (centres unmarked)
inhibition at 0.05 µM [3]: 92%

COc1cc(Nc2nc(N)c(-c3nc(-c4cccc(NC(=O)c5ccccc5CCc5ccccc5)c4)cs3)s2)cc(OC)c1OC
inhibition at 0.15 µM [9]: -14%

COc1cccc(C(=O)Nc2cc(-c3noc(-c4sc(NC(=O)NCCCN5CCCCC5)nc4N)n3)c(F)cc2F)c1
inhibition at 0.05 µM [8]: -20%

CNC(=O)Nc1nc(N)c(-c2nc(-c3cccc(NC(=O)Cc4cccc(OC)c4)c3)cs2)s1
inhibition at 0.001 µM [1]: 25%
inhibition at 0.01 µM [2]: -31%

COc1cccc(C(=O)Nc2cc(-c3csc(-c4sc(NC(=O)NCc5ccc(N)cc5)nc4N)n3)c(F)cc2F)c1
inhibition at 0.05 µM [3]: 83%

COc1cccc(C(=O)Nc2cc(-c3noc(-c4sc(NC(=O)N[C@@H](CC(N)=O)C(N)=O)nc4N)n3)c(F)cc2F)c1
inhibition at 0.05 µM [8]: 86%

CNC(=O)Nc1nc(N)c(-c2nc(-c3cccc(NC(=O)C(O)c4ccccc4)c3)cs2)s1 (centres unmarked)
inhibition at 0.001 µM [1]: -14%
inhibition at 0.01 µM [2]: -11%

COc1cccc(C(=O)Nc2cccc(-c3csc(-c4sc(NC(=O)NCCc5ccc(S(N)(=O)=O)cc5)nc4N)n3)c2)c1
inhibition at 0.01 µM [4]: 34%
inhibition at 0.05 µM [5]: 49%

CNC(=O)Nc1nc(N)c(-c2nc(-c3cccc(NC(=O)CC4CC5CCC4C5)c3)cs2)s1 (centres unmarked)
inhibition at 0.001 µM [1]: 0%
inhibition at 0.01 µM [2]: 93%

COc1cc(Nc2nc(N)c(-c3nc(-c4cccc(NC(=O)c5ccc6c(c5)OCO6)c4)cs3)s2)cc(OC)c1OC
inhibition at 0.15 µM [9]: 42%

CNC(=O)Nc1nc(N)c(-c2nc(-c3cccc(NC(=O)C4CC(=O)OC4(C)C)c3)cs2)s1 (centres unmarked)
inhibition at 0.001 µM [1]: 2%
inhibition at 0.01 µM [2]: -10%

CNC(=O)Nc1nc(N)c(-c2nc(-c3cccc(NC(=O)C4CCCC(OC)C4)c3)cs2)s1 (centres unmarked)
inhibition at 0.001 µM [1]: 6%
inhibition at 0.01 µM [2]: 5%

COc1cccc(C(=O)Nc2cc(-c3csc(-c4sc(NC(=O)NCCCN(C)c5ccccc5)nc4N)n3)c(F)cc2F)c1
inhibition at 0.05 µM [3]: 45%

COc1cc(Nc2nc(N)c(-c3nc(-c4cc(NC(=O)Cc5cc(F)ccc5F)ccc4C)no3)s2)cc(OC)c1OC
inhibition at 0.001 µM [6]: -7%
inhibition at 0.01 µM [7]: 59%
